According to US20220387396A1, “METHODS OF TREATING THE SYMPTOMS OF AUTISM SPECTRUM DISORDER” (MapLight Therapeutics, Inc., priority 2019, published 2022):
Several values for one entry are separate records, joined by “and”; a condition that tells them apart may be missing. Identical values can stand only once. Marks after values point to notes of the source that are not given here.

Key:
[1] = target: T1, rat recombinant 5-HT1b (r5-HT1b) receptors (Rattus norvegicus, UniProt P28564); assay: SPA-based 35S-GTPγS binding assay, rat 5-HT1b; format: biochemical; settings: for EC50: ten concentrations in duplicate
T1 construct: expressed in transfected cells

[2] = CSF exposure in c57/B16 mice after i.p. dosing
[3] = target: T2, human 5-HT1b (h5-HT1b) receptors (Homo sapiens, UniProt P28222); assay: SPA-based 35S-GTPγS binding assay, human 5-HT1b; format: biochemical; settings: for EC50: ten concentrations in duplicate
T2 construct: expressed in transfected cells

[4] = target: T3, 5-HT1b receptor (Homo sapiens, UniProt P28222); assay: Radioligand binding competition assay with 3H-5-CT; settings: for Ki: 3H-5-CT, derived from IC50 using Cheng-Prusoff equation
Excerpt: The Ki values were derived from IC50 values using Cheng-Prusoff equation.

[5] = CSF exposure in adult male CD-1 mice after i.p. dosing; settings: male CD-1 mice dosed with zolmitriptan 3 and 10 mg/kg i.p.
[6] = system: resident CD-1 mice; assay: Resident-Intruder (RI) assay, CD-1 resident / C57BL/6 intruder; format: in vivo, mouse; settings: CD-1 resident mice, cross-over, N=25, zolmitriptan 10 mg/kg, risperidone 0.03 mg/kg, mean; for Attack Time (s): 5 min period
Experimental: The resident mice were isolated for 1 week prior to testing aggressive behavior, while the intruders were group housed (4 per cage) throughout the study. All mice were given ad libitum food and water. Following the 1-week isolation period, aggressive behaviors were recorded using a front-facing camera daily (Monday-Friday) for up to 2 weeks to attain a stable baseline prior to evaluating drug effects. The interaction was scored using Borris open source event logging software to score the number of total initiated attacks by the resident and the cumulative duration of those attacks. Single fight bouts lasting longer than 60 seconds were stopped and the intruder was subsequently removed from the resident cage. […] Attack time was measured over a 5 min period as a cross over design.

[7] = system: resident BALB/c mice; assay: Resident-Intruder (RI) assay, BALB/c resident / C57BL/6 intruder; format: in vivo, mouse
Excerpt: Correspondingly, the RI assay has been used preclinically to study the effect of drugs on rodent aggression (Miczek et al., 2001). The RI assay typically relies on the interpretation and scoring of offensive (resident animal) behavior patterns and may also include analysis of defensive (intruder animal) behavior patterns as well. […] The resident mice were isolated for 1 week prior to testing aggressive behavior, while the intruders were group housed (4 per cage) throughout the study. All mice were given ad libitum food and water. Following the 1-week isolation period, aggressive behaviors were recorded using a front-facing camera daily (Monday-Friday) for up to 2 weeks to attain a stable baseline prior to evaluating drug effects. The interaction was scored using Borris open source event logging software to score the number of total initiated attacks by the resident and the cumulative duration of those attacks. Single fight bouts lasting longer than 60 seconds were stopped and the intruder was subsequently removed from the resident cage. […] The resident mice were treated with vehicle for two consecutive days and then balanced for a two arm (3 and 10 mg/kg) cross over study. […] The consecutive fourth and fifth days were vehicle treatment followed by a final cross over treatment day on the sixth day.

[8] = Multiple ascending oral dose study in adult healthy volunteers (safety, tolerability, CSF PK); format: in vivo, human
Experimental: An investigation of the safety, tolerability and pharmacokinetic response of oral zolmitriptan following multiple ascending doses in adult healthy volunteer subjects was undertaken.
Zolmitriptan 2.5 mg per tablet or placebo tablet was administered 3 times per day (TID) for an up-titration period, treatment period of 7 days, and a down-titration period. The dose regimen is depicted in Table 1.
A lumbar puncture was completed on each subject to determine the concentration of zolmitriptan in the CSF. CSF samples were collected on day 5 of treatment for Cohort 1 and day 7 of treatment for Cohorts 2 and 3, and day 8 of treatment for cohort 4 and 5. The CSF collection was 2 hours after the morning dose (+/−30 minutes). CSF concentration was measured using a validated bioanalytical method.

[9] = in vivo; settings: male, CD-1, mouse, ip
[10] = system: VPA-exposed male c57/B16 mice; assay: 3-chamber Social Interaction Assay in valproic acid (VPA)-induced mouse model of ASD; format: in vivo; settings: adult male c57/B16 mice previously exposed to VPA; 10 mg/kg i.p. 15 min before test; vs vehicle
Experimental: Specifically, sociability was evaluated in male c57/B16 mice that were previously exposed to valproic acid (VPA) via i.p. delivery of 500 mg/kg to their pregnant mothers at embryonic Day 13.
In this study, zolmitriptan was dissolved in 10% (2-Hydroxypropyl)-o-cyclodextrin in saline and administered intraperitoneally (i.p.) 15 minutes before mice were placed in the test chamber. Behavioral recordings were measured using an automated video tracking system (Noldus EthoVision v14) and analyzed and graphed using GraphPad Prism software v8. Sociability was assessed during a 10 min period in the 3-chamber Social Interaction Assay. The time spent (sec) in the social interaction zone (SIZ) in front of the juvenile novel C57/BL6 vs empty interaction zone (EIZ) were used to calculate the sociability scores for individual mice. Sociability index was calculated using SIZ/EIZ ratio. Social interaction preference was calculated using (SIZ)/(SIZ+EIZ)*100. Simultaneous recording up to 4 arenas were conducted for the social interaction assay. Paired and unpaired T tests were used as statistical tests.

[11] = target: T3, 5-HT1b receptor; assay: 5-HT1b receptor occupancy and efficacy model, human dose prediction; settings: for Zolmitriptan human dose: predicted dose; for Zolmitriptan [CSF]: predicted effective human CSF range
Excerpt: Specifically, 5-HT1b receptor occupancy and efficacy models measured potency of zolmitriptan and NMDZ at the 5-HT1b receptor and the ratio of zolmitriptan: NDMZ in human CSF.
Using classical receptor theory, the receptor occupancy when considering two ligands (i.e., entities) can be predicted using the following relationship:
Total % occupancy=(% occupancy by A)+{[100%−(% occupancy by A)]×(% occupancy by B)} when considering a fixed concentration of both A and B.
The model was converted to predict the level of 5-HT1b activation (i.e., efficacy) by both zolmitriptan and NDMZ based on the concentration of zolmitriptan in the CSF by substituting Occupancy for Efficacy as predicted by the Clark equation {Efficacy=[L]/([L]+Ki); [L]=ligand concentration} for both zolmitriptan and NDMZ:
Total % Efficacy={[Zolmitriptan]/([Zolmitriptan]+Ki,Z)}+(100−{[Zolmitriptan]/([Zolmitriptan]+Ki,Z)}×{[NDMZ]/([NDMZ]+Ki,N)}

[12] = male, c57/B16, mouse, CSF, ip, 10 mg/kg
[13] = BALB/c resident mice, 3 and 10 mg/kg i.p., 15 min pretreatment, 5 min interaction, cross-over vs vehicle

T1 sequence (P28564 whole entry): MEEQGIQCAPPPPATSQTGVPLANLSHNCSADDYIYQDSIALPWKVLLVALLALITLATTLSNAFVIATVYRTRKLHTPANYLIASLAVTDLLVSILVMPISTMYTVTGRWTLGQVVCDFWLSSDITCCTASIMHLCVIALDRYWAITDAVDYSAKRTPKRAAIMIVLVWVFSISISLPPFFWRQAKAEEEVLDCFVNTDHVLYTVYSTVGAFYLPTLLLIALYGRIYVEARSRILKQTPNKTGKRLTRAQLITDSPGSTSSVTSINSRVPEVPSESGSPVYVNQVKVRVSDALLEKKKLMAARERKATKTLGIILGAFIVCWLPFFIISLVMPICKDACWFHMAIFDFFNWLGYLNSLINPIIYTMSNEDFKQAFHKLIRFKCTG
T3 sequence (P28222 whole entry): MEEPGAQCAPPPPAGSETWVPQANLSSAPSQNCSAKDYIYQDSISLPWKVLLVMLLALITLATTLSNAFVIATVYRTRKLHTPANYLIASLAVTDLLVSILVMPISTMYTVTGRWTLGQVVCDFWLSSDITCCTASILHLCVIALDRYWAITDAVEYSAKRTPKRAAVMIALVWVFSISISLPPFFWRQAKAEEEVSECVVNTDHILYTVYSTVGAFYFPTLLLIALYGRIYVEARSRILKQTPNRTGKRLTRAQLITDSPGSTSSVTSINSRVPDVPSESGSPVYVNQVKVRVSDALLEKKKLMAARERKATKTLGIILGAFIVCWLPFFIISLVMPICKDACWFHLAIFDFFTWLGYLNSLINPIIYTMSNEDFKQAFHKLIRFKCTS
T2 sequence (P28222 whole entry): as above

CN1CCC[C@@H]1Cc1c[nH]c2ccc(CCS(=O)(=O)c3ccccc3)cc12 [Eletriptan, eletriptan]
EC50 [1]: 120 nM | c57/B16 mouse CSF Cmax (10 mg/Kg, i.p.) ([2]; 10 mg/Kg i.p.): 13.46 ng/mL | Kp [2, 12]: 0.0077 | EC50 [3]: 8.8 nM | Ki [4]: 4.48 nM

CN[C@@H]1CCc2[nH]c3ccc(C(N)=O)cc3c2C1 [Frovatriptan, frovatriptan]
c57/B16 mouse CSF Cmax (10 mg/Kg, i.p.) ([2]; 10 mg/Kg i.p.): 12.52 ng/mL | Kp [2, 12]: 0.0015

CNCCc1c[nH]c2ccc(C[C@H]3COC(=O)N3)cc12 [NDMZ, N-desmethyl zolmitriptan]
metabolite NDMZ level in CSF ([2]; male c57/B16 mice dosed with zolmitriptan 10 mg/kg i.p.): below the lower limit of quantification | Ki [4]: 1.18 nM | potency relative to zolmitriptan at human 5-HT1b ([4]; from Ki values): 2.83 fold | metabolite NDMZ level [5]: below the lower limit of quantification

CNS(=O)(=O)CCc1ccc2[nH]cc(C3CCN(C)CC3)c2c1 [Naratriptan, naratriptan]
EC50 [1]: 7.4 nM | c57/B16 mouse CSF Cmax (10 mg/Kg, i.p.) ([2]; 10 mg/Kg i.p.): 79.56 ng/mL | Kp [2, 12]: 0.0312 | EC50 [3]: 1.2 nM | Ki [4]: 0.95 nM

Cc1nc2n(c(=O)c1CCN1CCC(c3noc4cc(F)ccc34)CC1)CCCC2 [Risperidone]
Attack Time (s) [6]: 21.58* s | Latency to Attack [6]: 12.98 s

CN(C)CCc1c[nH]c2ccc(Cn3cncn3)cc12 [Rizatriptan, rizatriptan]
EC50 [1]: 210 nM | c57/B16 mouse CSF Cmax (10 mg/Kg, i.p.) ([2]; 10 mg/Kg i.p.): 90.20 ng/mL | Kp [2, 12]: 0.0466

CN(C)CCc1c[nH]c2ccc(C[C@H]3COC(=O)N3)cc12 [Zolmitriptan, zolmitriptan]
Attack Time (s) [6]: 18.46*** s | Attack Time (s) ([6]; listed as zolmitriptan): greater reduction in attack time | Latency to Attack [6]: 13.54 s | activity in GTPgS at CSF Cmax ([1]; CD-1 mouse, 3 mg/Kg i.p., CSF Cmax 18.8 nM): 36% | activity in GTPgS at CSF Cmax ([1]; c57/Bl6 mouse, 10 mg/Kg i.p., CSF Cmax 62 nM): 65% | difference between species in EC50 (rat vs human 5-HT1b) ([1]; rat EC50 relative to human EC50): 8.3 fold | EC50 [1]: 33 nM | c57/B16 mouse CSF Cmax (10 mg/Kg, i.p.) ([2]; 10 mg/Kg i.p.): 17.83 ng/mL | estimated effective CSF Cmax ([2]; c57/Bl6 ASD mouse model, 10 mg/Kg i.p.): 62 nM | Kp ([2]; male, c57/B16, mouse, CSF, intraperitoneal, 10 mg/kg): 0.0076 | Cmax [2, 12]: 17.8 ng/mL | Kp [2, 12]: 0.0076 | CSF levels required for therapeutic effect, humans vs mice (fold lower) ([3]; extrapolated from species difference in EC50): about 8.3 fold | EC50 [3]: 4 nM | attack time [7, 13]: reduction | number of attacks [7, 13]: reduction in the number of attacks | attack behavior, dose dependence ([7]; BALB/c resident mice, 3 and 10 mg/kg i.p., p<0.05, paired t-test): significant dose dependent effect of reduction in attack behavior | normal locomotor activity ([7]; treated mice, 3 and 10 mg/kg): did not effect normal locomotor activity | Ki [4]: 3.34 nM | safety and tolerability ([8]; adult healthy volunteers, oral TID multiple ascending doses, all Cohorts): safe and well tolerated | Kp at 2 h ([8]; human, CSF, oral, read-out: CSF: plasma ratio for exposure): 0.03 | Cmax ([9]; 3 mg/kg): 5.4 ng/mL | Cmax ([9]; 10 mg/kg): 34.4 ng/mL | sociability index (SIZ/EIZ ratio) [10]: increased the sociability index | concentration for 50% Total Efficacy relative to zolmitriptan EC50 ([11]; combined effect of metabolite): 3.7 fold | concentration of zolmitriptan in human CSF predicted to induce 50% efficacy (EC50) of 5-HT1b by zolmitriptan and NDMZ ([11]; model prediction): 1.09 nM and 0.31 ng/ml | Zolmitriptan human dose ([11]; Activity EC20-EC80): 1.25 to 35 mg | Zolmitriptan human dose ([11]; Activity EC25-EC75): 1.7 to 30 mg | Zolmitriptan human dose ([11]; Activity EC30-EC70): 2.25 to 20 mg | Zolmitriptan human dose ([11]; Activity EC35-EC65): 3 to 15 mg | Zolmitriptan human dose ([11]; Activity EC40-EC60): 5 to 12.5 mg | Zolmitriptan [CSF] ([11]; Activity EC20-EC80): 0.078 to 1.24 ng/mL | Zolmitriptan [CSF] ([11]; Activity EC25-EC75): 0.103 to 0.93 ng/mL | Zolmitriptan [CSF] ([11]; Activity EC30-EC70): 0.135 to 0.713 ng/mL | Zolmitriptan [CSF] ([11]; Activity EC35-EC65): 0.167 to 0.577 ng/mL | Zolmitriptan [CSF] ([11]; Activity EC40-EC60): 0.207 to 0.465 ng/mL
